Source: patent US20240050385A1, “METHODS OF TREATING LEPTOMENINGEAL METASTASIS” (MEMORIAL SLOAN-KETTERING CANCER CENTER, priority 2020, published 2024)
“Also recorded” adds a separate entry of the source. Where a name gives a salt, the structure may show the parent alone.

Experiments:
[1] = test system: PC9-LeptoM cells; test: In vivo leptomeningeal metastasis assay, PC9-LeptoM model, intracisternal chelator treatment; parameters: species or system mouse; details: for Median Survival: every 3 days; for [Fe]: total iron in CSF
Description: (§1) FIG. 16A-16L. Iron chelator treatment reduces CSF iron. (A) Experimental scheme. Mice were inoculated with 2×10^3 cells intrathecally on day 0. Treatment with either vehicle, DFO, or D-pen was commenced on either day 1 or day 7 and continued every third day for a total of 7 doses. (B) Chelators delivered intrathecally. DFO, Deferoxamine. D-Pen, D-Penicillamine. (C-F) Intracellular iron (C and E) and viability (D and F) of PC9-LeptoM cells and MDA231-LeptoM cells after treatment with chelators in different concentrations (0 μM, 1 μM, 10 μM and 100 μM). n=3-4 per group in each of two independent experiments. * indicates p<0.05, ** indicates p<0.01, ***indicates p<0.001, **** indicates p<0.0001 (unpaired t test). Data represent mean±SEM. (G) Growth of PC9-LeptoM tumor after treatment indicated in (A). Left: in vivo BLI imaging in day 28 post-inoculation. n=8-10 per group in each of two independent experiments. Right: Representative BLI images. **** indicates p<0.0001. Data represent mean±SEM. (H) Kaplan-Meier survival curve from (C) and (E). p<0.0001. (I and J) Total iron concentration measured in CSF samples of mice with treatment of chelators in PC9-LeptoM Model (I) in MDA231-LeptoM model (J). NS=not significant, * indicates p<0.05, ** indicates p<0.01 (unpaired t test). Data represent mean±SEM. (K and L) Immune cell composition in CSF of LLC-LeptoM model with the treatment of vehicle, DFO, or D-pen at day 10. n=6 per group. NS=not significant, * indicates p<0.05, ** indicates p<0.01 (unpaired t test). Data represent mean±SEM.
In vivo leptomeningeal metastasis assays. To model leptomeningeal metastasis with a known consistent disease burden, 2×10^3 PC9, 2×10^3 MDA231, or 1×10^3 LLC Parental or LeptoM cells suspended in 10 μl PBS were injected into the cisterna magna of anesthetized mice. This procedure was tolerated well by the mice. Tumor progression was monitored by bioluminescence imaging (BLI) every 7 days after tumor cell inoculation, and mouse condition was monitored daily. When the tumor cells encompassed the entire CNS, or when neurological impairment became apparent, CSF was collected as described above, and mice were euthanized. Brains and spinal cord were collected in tissue fixative and embedded for preservation or histological and morphometric analysis. The role of LCN2 in cancer progression at multiple metastatic sites was also assessed. Tumor burden was monitored and quantified non-invasively after tumor cell inoculation either by BLI signal using the IVIS Spectrum Xenogen (Caliper Life Sciences) machine or with calibrated digital caliper. To track cancer cell growth after hematogenous dissemination, 5×10^4 PC9-LeptoM cells (shCtl, shLCN2-1 and shLCN2-2) suspended in 50 μL PBS were injected into the left heart ventricle. Tumor burden was monitored every 3 days with BLI. To measure cancer cell growth in the lungs, 2.5×10^4 PC9-LeptoM cells (diluted 1:1 in Growth factor-reduced Matrigel, #354230) were injected into the left lung through the rib cage. Tumor burden was monitored every 3 days with BLI. To assess cancer cell growth after subcutaneous inoculation, 1×10^6 PC9-LeptoM cells (diluted 1:1 in growth factor-reduced Matrigel) were injected under the flank skin of the mouse, and tumor burden was monitored every 3 days with calibrated digital caliper. To introduce cells into the mammary fat pad, 5×10^4 MDA-231-LeptoM cells (diluted 1:1 in growth factor-reduced Matrigel) were injected into the fourth inguinal mammary fat pad; tumor burden was measured every 3 days with calibrated digital caliper. To test a hypoxic environment other than the leptomeninges, 5×10^6 cells, diluted in 200 uL PBS, were injected intraperitoneally. Tumor burden was monitored 7 days after inoculation by BLI. Exact numbers for each experimental series are included in the relevant Figure legends.
Mouse CSF collection and Intrathecal drug administration. […]

[2] = test system: LeptoM cells; test: Cell Viability Assay / growth after chelator treatment; type: cell-based, human; details: PC9-LeptoM and MDA231-LeptoM; in words
Description: as §1, with “NS=not significant, * indicates p<0.05, ** indicates p<0.01 (unpaired t test). Data represent mean±SEM. (K and L) Immune cell composition in CSF of LLC-LeptoM model with the treatment of vehicle, DFO, or D-pen at day 10. n=6 per group. NS=not significant, * indicates p<0.05, ** indicates p<0.01 (unpaired t test). Data represent mean±SEM.” left out
Cell Viability Assay. […] The CellTiter-Glo Luminescent Cell Viability Assay (Promega G9241) was used to quantify viable cells in culture according to the manufacturer's protocols. […]

[3] = IT-DFO dose escalation toxicity in healthy C57BL6/J mice; type: in vivo, mouse
Procedure: An IT-DFO dose escalation experiment was completed to determine the lethal dose to 10% of rodents (LD10) and any dose-dependent toxicities to the systemic circulation and organ function in a mouse model. In this study, healthy C57BL6/J mice were injected intracistemally with either PBS (control) or with a fixed dose of DFO (0.05 μM, 1 μM, 10 μM, 50 μM and 100 μM) in replicate at a schedule of twice weekly for a total of 6 weeks (42 days). Mice were monitored for weekly weights and survival trends. Remaining mice were sacrificed on day 46 and circulating blood collected via cardiac puncture. Blood was sent for complete blood count (CBC) with automated differential and complete metabolic panels (CMP).

[4] = test system: PC9-LeptoM cells; test: In vivo leptomeningeal metastasis assay, PC9-LeptoM model, intracisternal chelator treatment; parameters: species or system mouse

| SMILES | Median Survival ([1]; PC9-LeptoM model, intracisternal, start day not given) | [Fe] ([1]; PC9-LeptoM model, start day not given) | iron concentration in the CSF compared to control mice ([1]; PC9-LeptoM model, day 28, in words) | [Fe] ([1]; PC9-LeptoM model, late (day 7)) | Median Survival ([1]; PC9-LeptoM model, treatment begun late (day 7)) | dissemination of cancer cells over the spinal cord ([1]; PC9 mouse model, both early and late treatment groups, in words) | survival compared with vehicle control ([1]; PC9 mouse model, in words) | growth of the LeptoM cells [2] | lethality with cumulative twice weekly dosing (LD for % rodents) ([3]; 10 μM group, one mouse died at day 24, total N=12) | lethality with cumulative twice weekly dosing (LD for % rodents) ([3]; 50 μM group, one mouse died at day 46, total N=8) | lethality following a single dose ([3]; any tested concentration (0.05, 1, 10, 50, 100 μM)) | tolerability of intracisternal administration ([3]; mouse, in vivo) | [Fe] ([4]; total iron in CSF, early (day 0)) | Median Survival ([4]; treatment begun early (day 0), every 3 days) |
| --- | --- | --- | --- | --- | --- | --- | --- | --- | --- | --- | --- | --- | --- | --- |
| CC(C)(S)[C@@H](N)C(=O)O [D-Pen, D-penicillamine] | 31.5 ± 3.5 days | 15.13 ± 4.21 µM | – | – | – | – | – | – | – | – | – | – | – | – |
| CC(=O)N(O)CCCCCNC(=O)CCC(=O)N(O)CCCCCNC(=O)CCC(=O)N(O)CCCCCN [DFO, Deferoxamine mesylate] | – | – | profoundly decreased; also recorded: reduced CSF iron concentration to that of non-LeptoM control mice | 4.74 ± 0.38 µM | 40 ± 5 days | impaired dissemination | conferred a survival benefit; also recorded: significant survival benefit | substantially suppressed; also recorded: dramatically suppressed | 8.3% | 12.5% | no mice died | well tolerated | 5.63 ± 0.70 µM | 52 ± 7 days |
